Test results published in PubChem BioAssay (NCI).
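Tested at 5 concentrations; 48 h exposure; 96-well plates; endpoints linearly interpolated, else capped at highest concentration. GI50 = concentration required for 50% inhibition of growth. The concentration for full growth arrest is given as TGI.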

Columns and labels:
Assay in all cases: NCI anticancer screen, dose series, 48 h
TK-10 renal = tested on: TK-10 renal
SK-MEL-2 melanoma = tested on: SK-MEL-2 melanoma
DU-145 prostate = tested on: DU-145 prostate
RPMI-8226 leukemia = tested on: RPMI-8226 leukemia
SN12C renal = tested on: SN12C renal
SR leukemia = tested on: SR leukemia
UACC-62 melanoma = tested on: UACC-62 melanoma
HOP-62 NSCLC = tested on: HOP-62 NSCLC
PC-3 prostate = tested on: PC-3 prostate
SF-268 CNS = tested on: SF-268 CNS
NCI-H23 lung = tested on: NCI-H23 lung
786-0 renal = tested on: 786-0 renal
SNB-19 CNS = tested on: SNB-19 CNS
IGROV1 ovarian = tested on: IGROV1 ovarian
MDA-MB-231 breast = tested on: MDA-MB-231 breast
SW-620 colon = tested on: SW-620 colon
A549 NSCLC = tested on: A549 NSCLC
RXF 393 renal = tested on: RXF 393 renal
OVCAR-8 ovarian = tested on: OVCAR-8 ovarian
HT29 colon = tested on: HT29 colon
MDA-MB-435 = tested on: MDA-MB-435
ACHN renal = tested on: ACHN renal
HCT-15 colon = tested on: HCT-15 colon
K-562 leukemia = tested on: K-562 leukemia
SK-MEL-5 melanoma = tested on: SK-MEL-5 melanoma
SF-539 CNS = tested on: SF-539 CNS
UACC-257 melanoma = tested on: UACC-257 melanoma
SK-MEL-28 melanoma = tested on: SK-MEL-28 melanoma
OVCAR-3 ovarian = tested on: OVCAR-3 ovarian
NCI/ADR-RES ovarian = tested on: NCI/ADR-RES ovarian
KM12 colon = tested on: KM12 colon
CAKI-1 renal = tested on: CAKI-1 renal
A498 renal = tested on: A498 renal
M14 melanoma = tested on: M14 melanoma
HL-60(TB) leukemia = tested on: HL-60(TB) leukemia
MALME-3M melanoma = tested on: MALME-3M melanoma
HCC-2998 colon = tested on: HCC-2998 colon
HCT-116 colon = tested on: HCT-116 colon
COLO 205 colon = tested on: COLO 205 colon
NCI-H522 lung = tested on: NCI-H522 lung
SNB-75 CNS = tested on: SNB-75 CNS
U251 CNS = tested on: U251 CNS
T-47D breast = tested on: T-47D breast
HOP-92 NSCLC = tested on: HOP-92 NSCLC
MCF7 breast = tested on: MCF7 breast
OVCAR-5 ovarian = tested on: OVCAR-5 ovarian
EKVX NSCLC = tested on: EKVX NSCLC
NCI-H460 lung = tested on: NCI-H460 lung
SF-295 CNS = tested on: SF-295 CNS
UO-31 renal = tested on: UO-31 renal
NCI-H226 lung = tested on: NCI-H226 lung
CCRF-CEM leukemia = tested on: CCRF-CEM leukemia
OVCAR-4 ovarian = tested on: OVCAR-4 ovarian
SK-OV-3 ovarian = tested on: SK-OV-3 ovarian
BT-549 breast = tested on: BT-549 breast
HS 578T breast = tested on: HS 578T breast
LOX IMVI melanoma = tested on: LOX IMVI melanoma
MOLT-4 leukemia = tested on: MOLT-4 leukemia

## O=C1C(Cl)=C(N2CCOCC2)C(=O)c2ccccc21
TK-10 renal
  GI50: 16.7 µM
  TGI: 30.4 µM
SK-MEL-2 melanoma
  GI50: 3.82 µM
  TGI: 11.6 µM
DU-145 prostate
  GI50: 17.7 µM
  TGI: 31.9 µM
RPMI-8226 leukemia
  GI50: 2.63 µM
  TGI: 7.87 µM
SN12C renal
  GI50: 10.7 µM
  TGI: 23.1 µM
SR leukemia
  GI50: 2.77 µM
  TGI: 7.87 µM
UACC-62 melanoma
  GI50: 3.06 µM
  TGI: 10.7 µM
HOP-62 NSCLC
  GI50: 17.4 µM
  TGI: 31.3 µM
PC-3 prostate
  GI50: 9.38 µM
  TGI: 23.7 µM
SF-268 CNS
  GI50: 4.88 µM
  TGI: 16.8 µM
NCI-H23 lung
  GI50: 3.32 µM
  TGI: 20.9 µM
786-0 renal
  GI50: 16.6 µM
  TGI: 31.2 µM
SNB-19 CNS
  GI50: 16.1 µM
  TGI: 30.1 µM
IGROV1 ovarian
  GI50: 3.33 µM
  TGI: 6.74 µM
MDA-MB-231 breast
  GI50: 1.75 µM
  TGI: 3.72 µM
SW-620 colon
  GI50: 1.76 µM
  TGI: 3.51 µM
A549 NSCLC
  GI50: 17.8 µM
  TGI: 32.3 µM
RXF 393 renal
  GI50: 1.85 µM
  TGI: 3.26 µM
OVCAR-8 ovarian
  GI50: 1.6 µM
  TGI: 3 µM
HT29 colon
  GI50: 5.94 µM
  TGI: 21.8 µM
MDA-MB-435
  GI50: 1.95 µM
  TGI: 3.72 µM
ACHN renal
  GI50: 1.99 µM
  TGI: 3.48 µM
HCT-15 colon
  GI50: 2.11 µM
  TGI: 4.33 µM
K-562 leukemia
  GI50: 2.15 µM
  TGI: 7.8 µM
SK-MEL-5 melanoma
  GI50: 6.82 µM
  TGI: 19.4 µM
SF-539 CNS
  GI50: 20.1 µM
  TGI: 34.6 µM
UACC-257 melanoma
  GI50: 1.62 µM
  TGI: 3.03 µM
SK-MEL-28 melanoma
  GI50: 2.69 µM
  TGI: 6.32 µM
OVCAR-3 ovarian
  GI50: 2.04 µM
  TGI: 3.58 µM
NCI/ADR-RES ovarian
  GI50: 3.11 µM
  TGI: 13 µM
KM12 colon
  GI50: 13.7 µM
  TGI: 27.6 µM
CAKI-1 renal
  GI50: 1.88 µM
  TGI: 3.49 µM
A498 renal
  GI50: 11.2 µM
  TGI: 24.3 µM
M14 melanoma
  GI50: 5.62 µM
  TGI: 18.7 µM
HL-60(TB) leukemia
  GI50: 2.33 µM
  TGI: 5.32 µM
MALME-3M melanoma
  GI50: 2.55 µM
  TGI: 4.85 µM
HCC-2998 colon
  GI50: 12 µM
  TGI: 25.6 µM
HCT-116 colon
  GI50: 1.86 µM
  TGI: 3.37 µM
COLO 205 colon
  GI50: 14.2 µM
  TGI: 27.8 µM
NCI-H522 lung
  GI50: 1.67 µM
  TGI: 3.23 µM
SNB-75 CNS
  GI50: 14.2 µM
  TGI: 27.8 µM
U251 CNS
  GI50: 5.07 µM
  TGI: 17.8 µM
T-47D breast
  GI50: 2.31 µM
  TGI: 5.13 µM
HOP-92 NSCLC
  GI50: 1.52 µM
  TGI: 3 µM
MCF7 breast
  GI50: 3.49 µM
  TGI: 17.9 µM
OVCAR-5 ovarian
  GI50: 20.7 µM
  TGI: 36.4 µM
EKVX NSCLC
  GI50: 3.75 µM
  TGI: 14.3 µM
NCI-H460 lung
  GI50: 20.2 µM
  TGI: 42.8 µM
SF-295 CNS
  GI50: 19.2 µM
  TGI: 36.7 µM
UO-31 renal
  GI50: 1.64 µM
  TGI: 3.28 µM
NCI-H226 lung
  GI50: 11.8 µM
  TGI: 24.2 µM
CCRF-CEM leukemia
  GI50: 2.53 µM
  TGI: 6.77 µM
OVCAR-4 ovarian
  GI50: 1.61 µM
  TGI: 3.02 µM
SK-OV-3 ovarian
  GI50: 18.3 µM
  TGI: 32.2 µM
BT-549 breast
  GI50: 10.8 µM
  TGI: 23.2 µM
HS 578T breast
  GI50: 20.8 µM
  TGI: 69.6 µM
LOX IMVI melanoma
  GI50: 3.01 µM
  TGI: 13.6 µM

## N#CSCC1CC(O)(c2ccccc2)C(c2ccccc2)C(c2ccc(F)cc2)O1 (stereo not given)
TK-10 renal
  GI50: 2.38 µM
  TGI: 6.3 µM
SK-MEL-2 melanoma
  GI50: 2.69 µM
  TGI: 7.78 µM
DU-145 prostate
  GI50: 2.16 µM
  TGI: 5 µM
RPMI-8226 leukemia
  GI50: 1.67 µM
  TGI: 7.03 µM
SN12C renal
  GI50: 2.05 µM
  TGI: 5.27 µM
SR leukemia
  GI50: 0.344 µM
  TGI: 3.02 µM
UACC-62 melanoma
  GI50: 1.9 µM
  TGI: 5.58 µM
HOP-62 NSCLC
  GI50: 8.81 µM
  TGI: 24.3 µM
PC-3 prostate
  GI50: 2.14 µM
  TGI: 11.3 µM
SF-268 CNS
  GI50: 2.57 µM
  TGI: 7.25 µM
NCI-H23 lung
  GI50: 3.21 µM
  TGI: 11.1 µM
786-0 renal
  GI50: 3.05 µM
  TGI: 9.08 µM
SNB-19 CNS
  GI50: 19 µM
  TGI: > 70.3 µM
IGROV1 ovarian
  GI50: 1.69 µM
  TGI: 7.6 µM
MDA-MB-231 breast
  GI50: 2.53 µM
  TGI: 8.62 µM
SW-620 colon
  GI50: 3.02 µM
  TGI: 10 µM
A549 NSCLC
  GI50: 8.38 µM
  TGI: 40.5 µM
RXF 393 renal
  GI50: 2.22 µM
  TGI: 4.4 µM
OVCAR-8 ovarian
  GI50: 3.18 µM
  TGI: 11 µM
HT29 colon
  GI50: 2.61 µM
  TGI: 11.6 µM
MDA-MB-435
  GI50: 1.99 µM
  TGI: 4.9 µM
ACHN renal
  GI50: 3.42 µM
  TGI: 11.4 µM
HCT-15 colon
  GI50: 3.05 µM
  TGI: 10.2 µM
K-562 leukemia
  GI50: 1.5 µM
  TGI: 5.97 µM
SK-MEL-5 melanoma
  GI50: 4.84 µM
  TGI: 17.2 µM
SF-539 CNS
  GI50: 3.15 µM
  TGI: 7.69 µM
UACC-257 melanoma
  GI50: 3.66 µM
  TGI: 13.5 µM
SK-MEL-28 melanoma
  GI50: 2.93 µM
  TGI: 8.79 µM
OVCAR-3 ovarian
  GI50: 1.52 µM
  TGI: 2.99 µM
NCI/ADR-RES ovarian
  GI50: 3.13 µM
  TGI: 11.9 µM
KM12 colon
  GI50: 2.32 µM
  TGI: 5.85 µM
CAKI-1 renal
  GI50: 2.39 µM
  TGI: 5.46 µM
A498 renal
  GI50: 18.1 µM
  TGI: 45.9 µM
M14 melanoma
  GI50: 1.84 µM
  TGI: 4.09 µM
HL-60(TB) leukemia
  GI50: 0.672 µM
  TGI: 2.96 µM
MALME-3M melanoma
  GI50: 2.08 µM
  TGI: 5.02 µM
HCC-2998 colon
  GI50: 10.7 µM
  TGI: 23 µM
HCT-116 colon
  GI50: 1.28 µM
  TGI: 2.9 µM
COLO 205 colon
  GI50: 3.13 µM
  TGI: 9.97 µM
NCI-H522 lung
  GI50: 2.4 µM
  TGI: 7.24 µM
SNB-75 CNS
  GI50: 7.63 µM
  TGI: 45.2 µM
U251 CNS
  GI50: 3.66 µM
  TGI: 15.1 µM
T-47D breast
  GI50: 3.17 µM
  TGI: > 37.3 µM
HOP-92 NSCLC
  GI50: 2.13 µM
  TGI: 7.88 µM
MCF7 breast
  GI50: 2.8 µM
  TGI: 11.6 µM
OVCAR-5 ovarian
  GI50: 7.24 µM
  TGI: 19.4 µM
EKVX NSCLC
  GI50: 2.46 µM
  TGI: 7.58 µM
NCI-H460 lung
  GI50: 4.53 µM
  TGI: 18.1 µM
SF-295 CNS
  GI50: 1.88 µM
  TGI: 7.08 µM
UO-31 renal
  GI50: 2.62 µM
  TGI: 11.9 µM
NCI-H226 lung
  GI50: 4.89 µM
  TGI: 16.1 µM
CCRF-CEM leukemia
  GI50: 3.09 µM
  TGI: > 100 µM
OVCAR-4 ovarian
  GI50: 2.84 µM
  TGI: 10.9 µM
MOLT-4 leukemia
  GI50: 0.676 µM
  TGI: 4.51 µM
SK-OV-3 ovarian
  GI50: 28.6 µM
  TGI: > 90.6 µM
BT-549 breast
  GI50: 2.32 µM
  TGI: 5.39 µM
HS 578T breast
  GI50: 3.18 µM
  TGI: 12.9 µM
LOX IMVI melanoma
  GI50: 1.64 µM
  TGI: 3.18 µM
